Source: article PMC7922564, “Molecular Insights into an Antibiotic Enhancer Action of New Morpholine-Containing 5-Arylideneimidazolones in the Fight against MDR Bacteria” (International Journal of Molecular Sciences, 2021)
Values joined by “and” are separate entries in the source; they are usually repeats but may differ in a detail not shown here. Equal entries are not always repeated. Where two headings read alike, the source gives them in different places.

How the values were obtained:
S. aureus ATCC 25923 = assay: MIC determination (microdilution), S. aureus ATCC 25923; format: cell-based, Staphylococcus aureus; settings: for MIC: Staphylococcus aureus, ATCC25923, unstarred values of column MIC value/no precipitation, read-out: MIC value
Description: (§1) Determination of MIC values, i.e., intrinsic antibacterial activity, of products and antibiotics (oxacillin, ampicillin, vancomycin, ciprofloxacin, and erythromycin) in the presence and absence of compounds tested was conducted by the use of a standard 2-fold microdilution method in cation-adjusted Mueller Hinton broth following the Clinical and Laboratory Standards Institute (CLSI) guidelines. The MIC values were detected using an Infinite M200 pro Tecan microplate reader (Tecan® France, SA-Lyon, France). MIC determinations were conducted in 96-well microtiter plates and repeated 3–4 times.
(§2) Initially, MICs of a series of imidazolone derivatives were assessed against susceptible (reference) and MDR strains of staphylococci. Next, MIC values of the aforementioned antibiotics were determined in the absence and presence of imidazolone derivatives to assess the chemosensitizing effect of these compounds. […] 5-arylideneimidazolones and 5-arylidenethiazolones, which precipitated after addition to bacterial suspension in MH II medium, were tested at the highest concentrations at which precipitation was not observed. […] Antibacterial activity of compounds and antibiotics ampicillin, vancomycin, ciprofloxacin, and erythromycin was recorded as the lowest concentration of molecules able to inhibit bacterial growth after 18 h incubation at 37 °C. The incubation of bacterial strains exposed to oxacillin paired with compounds tested was conducted at 35 °C and extended to 24 h due to frequent occurrence of heterogeneity among MRSA strains. The results are presented as activity gain (A) parameter which was calculated as ratio of MIC of a certain antibiotic (MICAnt) to its MICAnt+Comp, observed in combination with a tested compound (7, 12–16, 19, or 20; Equation (1)). (1) A=(MICAnt/MICAnt+Comp)

MRSA 19449 = assay: MIC determination (microdilution), MRSA 19449; format: cell-based, Staphylococcus aureus; settings: for MIC: Staphylococcus aureus, MRSA, no precipitation
Description: as §1, §2

[1] = tested on: K. aerogenes Ea-289 (overexpression of AcrAB-TolC); assay: MIC of compounds, K. aerogenes Ea-289; format: cell-based; settings: Klebsiella aerogenes
Description: At first, MIC values of compounds were determined (Table S15, Supplementary). Next, their abilities to reduce MICs of the AcrAB-TolC substrates doxycycline (a tetracycline-class antibiotic) and erythromycin were studied (Table S16, Supplementary). […]
as §1
(§3) MIC values of 5-arylideneimidazolone derivatives were determined following CLSI recommendations as in the methods described for S. aureus (Section 3.3.1).

K. aerogenes Ea-289 = assay: MIC reduction assay (antibiotic adjuvant), K. aerogenes Ea-289; format: cell-based, Klebsiella aerogenes;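 also: compound at no more than one quarter of its own MIC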
Description: At first, MIC values of compounds were determined (Table S15, Supplementary). Next, their abilities to reduce MICs of the AcrAB-TolC substrates doxycycline (a tetracycline-class antibiotic) and erythromycin were studied (Table S16, Supplementary).
(§4) A subset of compounds, namely 7, 12–16, 19, 20, was also examined for the potential to increase the effectiveness of the antibiotics chloramphenicol, erythromycin, doxycycline, and the fluoroquinolone antibiotic norfloxacin, which all are substrates for AcrAB-TolC in K. aerogenes. In addition to strain Ea-289, the adjuvant-like effect of the compounds was investigated in strain CM-64, which also overexpresses the AcrAB-TolC efflux pump, although it has no changes in porin content, and in the Ea-289 derivatives, i.e., Ea-294 and Ea-308, which are devoid of AcrAB (Table S17, Supplementary).
as §2, §3

[2] = Water solubility (UV spectroscopy); format: physicochemical
Excerpt: Six representatives of 5-arylideneimidazolones (9–12, 15, 19) were chosen for the determination of water solubility. UV spectroscopy was used for the estimation of concentrations of compounds according to the method described earlier. Acquired UV absorbance, calculated means, and standard deviations for tested compounds are presented in Supplementary Table S18. Solubility results, presented in Table 6, point out that compounds from the same group (A or B, Table 1 and Table 2) with the two-ring aromatic moiety are more soluble than compounds with the fluorene motive (Group A: 9, 10, 11 vs. 12; Group B: 15 vs. 19). […] The most soluble of tested compounds was compound 15, which could be dissolved in water at a concentration of up to 205.502 mM/L.
Water solubility was obtained using UV spectroscopy method. Absorbance of tested solutions of compounds 9-12, 15, and 19, respectively in suitable dilution, in three repetitions as well as calculated arithmetic means, solubility and standard deviations are presented in Table S18. the solubility results […]
Table S18. Results of absorbance used for estimation of water solubility of tested compounds (9-12, 15, 19).
Abbreviations: A1, A2,and A3, UV absorbance in first, second, and third repetition; Amean, arithmetic mean of absorbance from three repetitions; s, standard deviation for absorbance; S, water solubility; SD – standard deviation for solubility. […]

[3] = Stability in acidic and basic conditions (TLC); format: physicochemical; settings: 1 = stable
Description: Compounds 9–12, 15, and 19 were also tested for their stability in acidic and basic conditions. This assay was carried out for 48 h and samples were taken at six-time intervals (10 min, 1 h, 2 h, 3 h, 24 h, 48 h). Stability of the compounds was determined using the TLC method. […] In basic conditions, only compounds 10 and 15 were stable for 24 h. […] Results with details, including time of degradation of products obtained, are presented in the Supplementary (Tables S19 and S20). […]
VI. Stability in different pH conditions
Stability of chosen compounds (9-12, 15, and 19) were determined using the TLC method. Assays were performed in acidic and basic conditions and were carried out for 48 h. Samples were taken at six-time intervals (10 min., 1 h, 2 h, 3 h, 24 h, 48 h). […]
of spots observed on TLC, where 1 indicate that compound is stable (only TLC spot for proper compound was observed). Higher values point out how many products of degradation was observed, which can be calculating by subtracting one from number of spots.
Table S19. Results of chosen compounds (9-12, 15, 19) stability in acidic conditions.
Compound Number of TLC spots in defined time
Table S20. Results of chosen compounds (9-12, 15, 19) stability in basic conditions.

[4] = tested on: K. aerogenes Ea-294, Ea-308 (devoid of AcrAB); assay: MIC of compounds, K. aerogenes Ea-294, Ea-308; format: cell-based; settings: Klebsiella aerogenes, read-out: Minimal Inhibitory Concentration (MIC)
Excerpt: as §4, §1, §3

[5] = tested on: K. aerogenes CM-64 (overexpression of AcrAB-TolC); assay: MIC of compounds, K. aerogenes CM-64; format: cell-based; settings: Klebsiella aerogenes, read-out: Minimal Inhibitory Concentration (MIC)
Excerpt: as §4, §1, §3

[6] = tested on: K. aerogenes Ea-294, Ea-308; assay: MIC reduction assay (antibiotic adjuvant), K. aerogenes Ea-294, Ea-308; format: cell-based, Klebsiella aerogenes; settings: doxycycline, chloramphenicol, norfloxacin, erythromycin;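 also: compound at no more than one quarter of its own MIC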
Excerpt: as §4, §2, §3

K. aerogenes CM-64 = assay: MIC reduction assay (antibiotic adjuvant), K. aerogenes CM-64; format: cell-based, Klebsiella aerogenes; settings: doxycycline, chloramphenicol, norfloxacin, erythromycin;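 also: compound at no more than one quarter of its own MIC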
Excerpt: as §4, §2, §3

[7] = tested on: AcrAB-TolC efflux pump in K. aerogenes strain Ea-289; assay: Real-time efflux (RTE) assay, 1,2'-dNA extrusion; format: cell-based, Klebsiella aerogenes; settings: compound 100 µM; IE=100% total inhibition of efflux
Description: Compounds 7, 12–16, 19, and 20 were also assessed for their EPI property in K. aerogenes strain Ea-289 with the use of a real-time efflux (RTE) assay. Results for compounds 16 and 20 were previously described. The experiment is based on the measurement of the extrusion of a fluorescent dye from bacterial cells overproducing efflux pump transporters in the presence and absence of compounds tested. The dye used in this assay, 1,2’ –dinaphthylamine (1,2’-dNA), is a substrate for the AcrAB-TolC efflux pump, and is strongly fluorescent upon incorporation into a phospholipid bilayer, although it is almost non-fluorescent in an aqueous solution [37, 38].
A likewise strong blocking efficacy (IE = 83 %) was also noticed for compound 12, while the lowest inhibitory effect was found for compound 13 (IE = 23 %).
The inhibitory activity of 5-arylideneimidazolone derivatives towards AcrAB-TolC mediated efflux of 1,2’-dNA was detected in K. aerogenes strain Ea-289 by using a real-time fluorometric method. In a first step, bacterial cells were loaded with the environment-sensitive fluorescent membrane probe, 1,2’-dNA, in the presence of the EPI carbonyl cyanide m-chlorophenylhydrazone (CCCP) which inactivated the pump by dissipating membrane potential. Next, compounds tested were added at the concentration of 100 µM and the efflux was energizing by automated injection of glucose at a dose of 50 µM. The fluorescence intensity was measured in a microplate reader (Tecan) with an excitation wavelength of λex = 370 nm and an emission wavelength of λem = 420 nm.

[8] = read-out: MIC value/no precipitation

Cl.O=C1N=C(N2CCC(N3CCOCC3)CC2)N/C1=C\c1cccc2ccccc12 [Compound 11, (Z)-5-(Naphthalen-1-ylmethylene)-2-(4-Morpholinopiperidin-1-yl)-Imidazol-4(5H)-one Hydrochloride]
MIC (S. aureus ATCC 25923): 31.2 to 250 µM | MIC (MRSA 19449): 31.2 to 250 µM | MIC [1, 8]: > 250 µM | A (activity gain) (K. aerogenes Ea-289; doxycycline): 1 | A (activity gain) (K. aerogenes Ea-289; erythromycin): 1 | solubility [2]: 20200 µg/mL and 47300 µM | Number of TLC spots ([3]; acidic conditions, 10 min): 1 | Number of TLC spots ([3]; acidic conditions, 1 h): 1 | Number of TLC spots ([3]; acidic conditions, 2 h): 1 | Number of TLC spots ([3]; acidic conditions, 3 h): 1 | Number of TLC spots ([3]; acidic conditions, 24 h): 1 | Number of TLC spots ([3]; acidic conditions, 48 h): 2 | Number of TLC spots ([3]; basic conditions, 10 min): 1 | Number of TLC spots ([3]; basic conditions, 1 h): 2 | Number of TLC spots ([3]; basic conditions, 2 h): 2 | Number of TLC spots ([3]; basic conditions, 3 h): 2 | Number of TLC spots ([3]; basic conditions, 24 h): 2 | Number of TLC spots ([3]; basic conditions, 48 h): 2

O=C1NC(N2CCC(N3CCOCC3)CC2)=N/C1=C\c1c2ccccc2cc2ccccc12 [Compound 13]
MIC (S. aureus ATCC 25923): 31.2 to 250 µM | MIC (MRSA 19449): 31.2 to 250 µM | MIC [4]: 2000 µM | MIC [1, 8]: > 250 µM | MIC ([1]; read-out: Minimal Inhibitory Concentration (MIC)): > 2000 µM | MIC [5]: > 2000 µM | A (activity gain) [6]: 1 | A (activity gain) (K. aerogenes Ea-289; doxycycline): 1 | A (activity gain) (K. aerogenes Ea-289; doxycycline, chloramphenicol, norfloxacin, erythromycin): 1 | A (activity gain) (K. aerogenes Ea-289; erythromycin): 1 | A (activity gain) (K. aerogenes CM-64): 1 | Inhibition efficiency (IE) towards extrusion of 1,2'-dNA [7]: 23%

NC1=N/C(=C\c2ccc(Oc3ccccc3)cc2)C(=O)N1CCCN1CCOCC1 [Compound 17]
MIC (MRSA 19449): 31.2 to 250 µM | MIC [1, 8]: > 250 µM | A (activity gain) (K. aerogenes Ea-289; doxycycline): 1 | A (activity gain) (K. aerogenes Ea-289; erythromycin): 1

NC1=N/C(=C\c2cc3ccccc3c3ccccc23)C(=O)N1CCCN1CCOCC1 [Compound 21]
MIC (S. aureus ATCC 25923): 31.2 to 250 µM | MIC (MRSA 19449): 31.2 to 250 µM | MIC [1, 8]: > 250 µM | A (activity gain) (K. aerogenes Ea-289; doxycycline): 1 | A (activity gain) (K. aerogenes Ea-289; erythromycin): 1

Cc1onc(-c2ccccc2)c1C(=O)N[C@@H]1C(=O)N2[C@@H]1SC(C)(C)[C@@H]2C(=O)O [oxacillin, reference compound]
MIC of the antibiotic alone (S. aureus ATCC 25923; oxacillin alone): 0.25 µg/mL | MIC of the antibiotic alone (MRSA 19449; oxacillin alone): 256 µg/mL
